Each molecule was assayed on mouse model with ear AD-like symptoms induced by calcipotriol (MC903) (assay: Mouse model with ear AD-like symptoms induced by calcipotriol (MC903), second batch of experiments (Embodiment 32)). Conditions: MC903 5 nmol/mouse every day, 9 days, vs model control group (MC903+EtOH), Mann-Whitney test.
Format: in vivo, BALB/c mouse
Protocol: (§1) A mouse model with ear AD-like symptoms induced by calcipotriol (MC903) was used to investigate these compounds in terms of the treatment activity for AD.
(§2) Referring to the Patent with a publication number of CN 110368386 A, a mouse model induced by MC903 (Calcipotriene) was prepared, wherein both ears of the BALB/c mouse model were applied with MC903, MC903+indole-3-aldehyde (IAId), or MC903+the compound prepared from the embodiments for 11 consecutive days, respectively, and total serum IgE levels, ear thicknesses, and weight loss in relative to the weight at the beginning of the experiment were tested at the end of the experiment.
(§3) The data shown in the results were average values ±SD of five independently repeated trials. Significance analysis was performed using Mann-Whitney test on the differences of corresponding parameters of the mice with the treatment group (MC903+ethanol (EtOH)), which was only administrated with MC903, wherein * indicated P<0.05, ** indicated P<0.01; *** indicated P<0.001.
Therefore, in the second batch of drug tests, the dosage of MC903 was decreased to 5 nmol/mouse every day, and the test period was reduced to 9 days.
(§4) EtOH group was a Blank control group, which was only administrated with ethanol. MC903+ EtOH group was a model control group, which was administrated with Calcipotriene and ethanol. The remaining groups were the groups which were administered with MC903 to construct the model, and then administered with different drugs. Indole-3-aldehyde (IAId) group was the group administered with IAId. Indole-3-methanol (I3C) group was the group administered with I3C. The other compound groups were the groups administered with corresponding compounds.

| SMILES | reducing the total serum IgE levels of the mice | reducing ear thicknesses of the mice |
| --- | --- | --- |
| CCCCCCCCCCCCCC(=O)OCOC(=O)n1cc(CO)c2ccccc21 [Compound 23, (tetradecanoyloxy)methyl 3-(hydroxymethyl)-1H-indole-1-carboxylate] | statistically significant difference |  |
| CCCCCCCCCCCCCC(=O)OCn1cc(CO)c2ccccc21 [Compound 41, (3-(hydroxymethyl)-1H-indol-1-yl)methyl tetradecanoate] | statistically significant difference |  |
| CC(=O)Oc1ccccc1C(=O)OCOC(=O)n1cc(C=O)c2ccccc21 [Compound 8, ((2-acetoxybenzoyl)oxy)methyl 3-formyl-1H-indole-1-carboxylate] | statistically significant difference | statistically significant difference |
| CCCCCCCCCCCCCCCC(=O)OCn1cc(C=O)c2ccccc21 [Compound 33, (3-formyl-1H-indol-1-yl)methyl palmitate] | statistically significant difference |  |
| CC(=O)Oc1ccccc1C(=O)OCOC(=O)n1cc(CO)c2ccccc21 [Compound 26, ((2-acetoxybenzoyl)oxy)methyl 3-(hydroxymethyl)-1H-indole-1-carboxylate] | statistically significant difference |  |
| O=C(Cc1ccccc1Nc1c(Cl)cccc1Cl)OCOC(=O)n1cc(CO)c2ccccc21 [Compound 27, (2-(2-((2,6-dichlorophenyl)amino)phenyl)acetoxy)methyl 3-(hydroxymethyl)-1H-indole-1-carboxylate] | statistically significant difference | statistically significant difference |
| CCCCCCCCCCCCCCCC(=O)OCOC(=O)n1cc(CO)c2ccccc21 [Compound 24, (palmitoyloxy)methyl 3-(hydroxymethyl)-1H-indole-1-carboxylate] | statistically significant difference |  |

Each molecule was assayed on mouse model with ear AD-like symptoms induced by calcipotriol (MC903) (assay: Mouse model with ear AD-like symptoms induced by calcipotriol (MC903), first batch of experiments (Embodiment 32)). Conditions: MC903 6.9 nmol/mouse every day, both ears, 11 consecutive days, vs model control group (MC903+EtOH), Mann-Whitney test.
Format: in vivo, BALB/c mouse
Protocol: as §1, §2, §3
In this batch of experiments, the dosage of MC903, a drug for constructing the models, was 6.9 nmol/mouse every day, and the experimental results of Compounds 1, 2, 3, 6, 7, 19, 20, 28, 29, 30, 34, 37, 38, and 39 in this batch were shown in FIGS. 11 to 13.
as §4, with “then administrated” for “then administered”, “with IAId, indole-3-methanol” for “with IAId. Indole-3-methanol”

| SMILES | reducing ear thicknesses of the mice | reducing the total serum IgE levels of the mice |
| --- | --- | --- |
| OCc1c[nH]c2ccccc12 [Compound I3C, indole-3-methanol, reference compound] | significantly reduced | significantly reduced |
| CCCCCCCCCC(=O)OCn1cc(CO)c2ccccc21 [Compound 39, (3-(hydroxymethyl)-1H-indol-1-yl)methyl decanoate] | statistically significant difference | statistically significant difference |
| COCCOCCOCCOCCOCC(=O)OCn1cc(C=O)c2ccccc21 [Compound 34, (3-formyl-1H-indol-1-yl)methyl 2,5,8,11,14-pentaoxahexadecan-16-oate] | statistically significant difference | statistically significant difference |
| CCCCCCCC(=O)OCOC(=O)n1cc(C=O)c2ccccc21 [Compound 2, (octanoyloxy)methyl 3-formyl-1H-indole-1-carboxylate] |  | statistically significant difference |
| CCCCCC(=O)OCn1cc(CO)c2ccccc21 [Compound 37, (3-(hydroxymethyl)-1H-indol-1-yl)methyl hexanoate] |  | statistically significant difference |
| CCCCCC(=O)OCOC(=O)n1cc(C=O)c2ccccc21 [Compound 1, (hexanoyloxy)methyl 3-formyl-1H-indole-1-carboxylate] | statistically significant difference | statistically significant difference |
| CCCCCC(=O)OCOC(=O)n1cc(CO)c2ccccc21 [Compound 19, (hexanoyloxy)methyl 3-(hydroxymethyl)-1H-indole-1-carboxylate] | statistically significant difference |  |
| CCCCCCCC(=O)OCOC(=O)n1cc(CO)c2ccccc21 [Compound 20, (octanoyloxy)methyl 3-(hydroxymethyl)-1H-indole-1-carboxylate] | statistically significant difference |  |
